Experiments:
Assay type in all cases: cell-based, human
[1] = tested on: A375-WT; assay: Pan-Cancer PepTile/PiTile fitness screen (lentiviral 40-mer peptide library, NGS abundance); parameters: key: enrichment of each peptide's NGS abundance, early day vs Day 14; conditions: for A375-WT Fitness Score: Pan-Cancer library, peptide enrichment day 14 vs day 0
Source text: FIGS. 13A-13D show Pan-Cancer PiTile Workflow. (A) The Pan-Cancer peptide library is composed of 1081 proteins tiled into 40-mer peptides at every 6 amino acids of the parental protein. The DNA-encoded library is cloned into lentiviral vectors and packaged into lentivirus. (B) A375 cell line was transduced with the Pan-Cancer PiTile library. Genomic DNA was then harvested at Day2 and Day 14 post-transduction and cell populations abundance expressing the different peptides were quantified using Next-Generation Sequencing (NGS). Peptide fitness score was then calculated by the abundance of each peptide at Day2 versus Day 14. Then the fitness signal is mapped over the original amino acid positions of the derived protein. (C) Coverage of the plasmid Pan-Cancer library and peptide-amplicons from Day2 and Day 14 replicated was determined by NGS. (D) Dot plot of the experimental result obtain from screening the Pan-Cancer library in A375 cell line.
(§1) A peptide tilling screen was performed in A375 similarly to a screen done in MDA-MB-231 (FIG. 1) but with a different lentiviral library. The library (Pan-Cancer library) is composed of 1020 genes tiled every 6 amino acids into 40-mer amino acid long peptides. The gene selection was based on their implication in oncogenesis either being as oncogenes or tumor suppressors. The list was built using recent literature that identified new cancer drivers as well as databases such as Uniprot keywords (KW-0656: Proto-oncogene, KW-0043: Tumor suppressor), and Gene Ontology terms (GO1900117: Apoptosis, GO1901979: Cell cycle checkpoint) (FIG. 2). Aside from Human genes, a list of viral genes was also included (KW-1121: Modulation of host cell cycle by virus) that play roles in high jacking cell cycle progression and thus in oncogenesis (FIG. 2).
(§2) The model of study is melanoma, and this disease is stratified into 4 molecular subtypes, BRAF mutants, NRAS mutants, KIT amplification, NF1 mutations (FIG. 3A). The most prominent mutations found in patient affected with metastatic melanomas are BRAF^V600E and NRAS^Q61K (FIG. 3B). RAS play a key role in oncogenesis and resistance to treatments. Indeed, RAS activating mutations is found in ~20% of all human cancers and secondary NRAS mutation leads to acquired resistance to BRAF targeted therapy such as vemurafenib. Thus, the screen was performed in an A375 cell line model which derived from human BRAF^V600E melanoma as well as an engineered A375 transduced with HA-NRAS^Q61K (FIG. 4A, B). Both cell lines grow at a similar rate but the A375-NRAS^Q61K display more than 10-fold resistance to vemurafenib treatment compared to parental A375 (FIG. 4C, D).
(§3) These cells were transduced with the Pan-Cancer library at a low multiplicity of infection (MOI=0.1-0.3). Then, genomic DNA was extracted at day 0 and day 14 post-transduction to quantify the abundance of peptide for each temporal conditions using Next-generation sequencing. Each experimental replicates were deep sequenced with at least 150 million reads and show a coverage between 82-90% of the initial Pan-Cancer Peptide library (FIG. 5). Then, for each individual peptides a cellular fitness score was calculated based on their enrichment between day 0 and day 14. 8090 peptides negatively affecting growth of A375-WT were identified and 8153 peptides for the A375-NRAS^Q61K cell line (FIG. 6). […] Those common hits are found to be tiles from ~100 genes of the Pan-Cancer gene list and show a substantial biological function clustering.
We built a DNA-encoded peptide library composed of all known Human oncogenes and Tumor Suppressors that we fragmented in 40 amino acid long peptides, the Pan-Cancer library. Using lentiviral expression system, we transduced the Pan-Cancer library in A375 cell line. After 14 days of growth, the frequency of each peptide is measured by NGS and this reveal which peptides affect cell fitness. […]

[2] = tested on: A375-NRAS^Q61K; assay: Pan-Cancer PepTile fitness screen (lentiviral 40-mer peptide library, NGS abundance); conditions: peptide enrichment day 14 vs day 0
Experimental: as §1, §2, §3

[3] = tested on: A-to-I RNA editing reporter (ADAR) in A375; assay: A-to-I PepTile (REPTILE) screen: A-to-I editing of dsRNA hairpin reporter by NGS; conditions: for % A-to-I editing (IFNα): IFNα 6000 U/ml for 48 hours; for % A-to-I editing (Basal): no treatment
Source text: (§4) FIGS. 12A-12D. A-to-I PepTile screen. (A) Composition of A-to-I PepTile linrary screen, and schematic description of the lentiviral expression vector. (B) Experimental workflow. A375 cells were transduced at low MOI, and then treated or not with IFNα for 48 hrs. RNA was extracted and Peptide_ADARreporter RNA species were amplified and sequenced by NGS. (C) Dot plot of A-to-I PepTile library effect on A-to-I editing with or without IFNα treatment. Red line is the mean A-to-I editing of all the 8088 peptides (>100 read counts) no treatment: 25.75% IFNα: 37.6%. (D) Dot plot of A-to-I PepTile library fitness effect upon IFNα for 48 hrs.
FIGS. 17A-17F show A-to-I RNA Editing PiTile (REPTILE) screen in A375. (A) A-to-I RNA Editing PiTile (REPTILE) library design consist of fragmentation of all known ADAR1, ADAR2 interactors and all human double stranded RNA-binding protein into 40 amino acid long peptide. This library was then cloned into a lentivirus vector that also encode a DNA-encoded RNA loop reporter (A-to-I Rep) that is edited by ADAR proteins in cells at the RNA level. When the construct is expressed, the RNA loop gets edited on a single Adenosine, while the 40-mer peptide get expressed at the protein level. Then we can measure the impact of the peptide expression on the editing rate of the RNA loop reporter by sequencing (NGS and Sanger). (B) Experimental workflow of REPTILE screen in A375 cell line. Cells were transduced with the REPTILE library, and then treated for 48 hours with IFNα. Following the treatment, RNA was harvested, converted into cDNA and amplicon library containing peptide Identity (barcode) linked to the RNA loop reporter were prepared for NGS. (C) Result of the A375 REPTILE screen in the no treatment condition. Each dot represents a unique peptide that is associated with an A-to-I editing rate that was measured on the RNA loop. (D) Result of the A375 REPTILE screen in the IFNα condition. Each dot represents a unique peptide that is associated with an A-to-I editing rate that was measured on the RNA loop. Red line represent the A-to-I editing mean, Dash blue line represent 2 times the standard deviation of the % A-to-I editing across all the datasets. This cutoff was used to defined peptides hits that modulate RNA A-to-I editing. (E) Peptide A-to-I Inhibitor Hits intersection between no treatment (% A-to-I editing<15%) and IFNα (% A-to-I editing<27%) conditions. (F) Peptide A-to-I Enhancers Hits intersection between no treatment (% A-to-I editing>36%) and IFNα (% A-to-I editing>47%) conditions.
Provided herein is a screening methodology to measure the effect of small peptide on A-to-I RNA editing in situ and screen thousands of peptides in a single experiment. First, a library of peptides with the potential of impairing A-to-I editing was designed and built. ADAR enzymes edit RNA only on double-stranded RNA structures and via ADAR's double stranded RNA-Binding Domain (dsRBD). […] The A-to-I PepTile library is composed of 19 Human proteins having dsRBD and 34 known protein-protein interactors of ADAR1/2. All these proteins were tiled into 40-mer peptides every 4 amino acids (FIG. 12A). To measure A-to-I editing, a biosensor consisting of a 71 bp dsRNA hairpin structure that gets A-to-I edited at a rate of 25% in A375 melanoma cells, and ~37% upon IFNα treatment was used. This A-to-I editing reporter is fused with DNA sequence encoding for a peptide from the A-to-I PepTile library. The A-to-I PepTile plasmid pool (10304 elements) was used to produced lentiviruses and transduced A375 cells at a low multiplicity of infection (MOI) (FIG. 12B). A part of the infected cells was treated with IFNα at 6000 U/ml for 48 hours, and then bulk RNA of the basal and treated condition was harvested. RNA was then retrotranscribed into cDNA and sequenced by Next-Generation Sequencing (NGS). […]

[4] = tested on: A375 cells; assay: A-to-I PepTile screen: fitness effect upon IFNα (PepTile abundance untreated vs treated)
Source text: as §4
Provided herein is a screening methodology to measure the effect of small peptide on A-to-I RNA editing in situ and screen thousands of peptides in a single experiment. First, a library of peptides with the potential of impairing A-to-I editing was designed and built. ADAR enzymes edit RNA only on double-stranded RNA structures and via ADAR's double stranded RNA-Binding Domain (dsRBD). […] The A-to-I PepTile library is composed of 19 Human proteins having dsRBD and 34 known protein-protein interactors of ADAR1/2. All these proteins were tiled into 40-mer peptides every 4 amino acids (FIG. 12A). To measure A-to-I editing, a biosensor consisting of a 71 bp dsRNA hairpin structure that gets A-to-I edited at a rate of 25% in A375 melanoma cells, and ~37% upon IFNα treatment was used. This A-to-I editing reporter is fused with DNA sequence encoding for a peptide from the A-to-I PepTile library. The A-to-I PepTile plasmid pool (10304 elements) was used to produced lentiviruses and transduced A375 cells at a low multiplicity of infection (MOI) (FIG. 12B). A part of the infected cells was treated with IFNα at 6000 U/ml for 48 hours, and then bulk RNA of the basal and treated condition was harvested. RNA was then retrotranscribed into cDNA and sequenced by Next-Generation Sequencing (NGS). With the sequencing data, the A-to-I editing percentage of the RNA reporter for each PepTile is calculated since both elements are encoded on the same transcript. Moreover, with this screen one can also measure the abundance of the PepTiles between the untreated and treated conditions and determine Fitness score associated to every PepTile. To ensure a robust and more accurate A-to-I editing % estimation a cut-off of 100 read counts was set for each PepTile. […] SEQ ID NOs: 2125-2147 are A-to-I peptide inhibitors and SEQ ID NOs: 2148-2210 are A-to-I activators. In addition, 117 PepTiles were identified that either synergize (SEQ ID NOs: 2211-2243) or protect (SEQ ID NOs: 2244-2327) to IFNα-induced cell death (FIG. 12D and Table 5). These PepTiles are potential new therapeutic agents that can modulate the Interferon pathway. They may be beneficial in treating inflammatory conditions and may also enhance the effectiveness of cancer immunotherapy through synergistic effects.

[5] = IFNα 6000 U/ml for 48 hours vs untreated

Row | Substance | A375-WT Fitness Score [1] | A375-NRAS Fitness Score [2] | Fitness score ([1]; PanCancer Peptide Table (Table 3), lentivirally expressed 40-mer peptide tile) | % A-to-I editing (IFNα) [3] | % A-to-I editing (Basal) [3] | Fitness Score IFNα [4, 5] | Fitness Score IFNα ([4]; A375, PepTile abundance upon IFNα treatment, negative = synthetic lethal, positive = protector)
1 | ARID2_13: 40-mer peptide tile of ARID2, AA start position 72, ARID domain (IVEEFNFPRSCSNAAFALKQYYLRYLEKYEKVHHFGEDDD; UniProt Q68CP9 72-111, looked up, fragment) | −2.41 | 0.85 | – | – | – | – | –
2 | AXIN1_22: 40-mer peptide tile of AXIN1, AA start position 126, RGS domain (KLEPCDSNEEKRLKLARAIYRKYILDNNGIVSRQTKPATK; RGS domain peptide tile; UniProt O15169 126-165, looked up, fragment) | −2.88 | −0.54 | – | – | – | – | –
3 | BRAF_64: 40-mer peptide tile of BRAF, AA start position 378, CR2 domain (NIDDLIRDQGFRGDGGSTTGLSATPPASLPGSLTNVKALQ; UniProt P15056 378-417, looked up, fragment) | −2.28 | −2.72 | – | – | – | – | –
4 | CDKN2B_4: 40-mer peptide tile of CDKN2B, AA start position 18, ANK domain (LASAAARGLVEKVRQLLEAGADPNGVNRFGRRAIQVMMMG; UniProt P42772 18-57, looked up, fragment) | 0.36 | −3.63 | – | – | – | – | –
5 | CTNNB1_30: 40-mer peptide tile of CTNNB1, AA start position 174, Armadillo domain (MVHQLSKKEASRHAIMRSPQMVSAIVRTMQNTNDVETARC; UniProt P35222 174-213, looked up, fragment) | −3.29 | −0.85 | −3.30 | – | – | – | –
6 | DOCK4_114: 40-mer peptide tile of DOCK4, AA start position 678, Armadillo domain (LIKVLKWYVDRITEAERQEHIQEVLKAQEYIFKYIVQSRR; UniProt Q8N1I0 678-717, looked up, fragment) | 0.87 | −3.45 | – | – | – | – | –
7 | MVSSAAGPLGPGDAVRRVLECVATGTLLTDGPGLQDPCERD [ZFR2_206] | – | – | – | 55.48% | 44.05% | 0.81 | –
8 | MVVLLCRQPCASQSSLKDINWDSSQWQPLIQDRCFLSWLVK [UPF1_52] | – | – | – | 47.63% | 50.56% | -0.80 | –
9 | MVYQAPLSLATVPHQALGRTQSSPAAPGGMKSPPDQPVKHL [HDAC5_161] | – | – | – | 48.17% | 43.88% | -0.12 | –
10 | MWDSIIQQATKNVDILKDPETVKQLGSILKTNVRACKAVGH [XPO1_167] | – | – | – | 25.96% | 11.93% | 1.42 | –
11 | MYSGYEAAVYSAASSYYQQQQQQQKQAAAAAAAAAATAAWT [ZFR_67] | – | – | – | 47.21% | 41.43% | 2.43 | 2.43
